The source of these data is patent publication US20070293486A1, “Alpha-Keto Carbonyl Calpain Inhibitors” (SANTHERA PHARMACEUTICALS (SCHWEIZ) AG, priority 2004, published 2007).

As a reminder, the IC50 is the concentration that gives 50% inhibition. Broadly, the melting point is the temperature, or range, at which the solid turns liquid.

SMILES strings stand for the structures.

Data set [1] concerns cellular calpains in C2C12 myoblasts. Nature of the data set: Calpain Inhibition Assay in C2C12 Myoblasts. Particulars: read-out: Calp I IC50 Myoblast. The format is cell-based. How it is done: This assay is aimed at monitoring the ability of the substance to inhibit cellular calpains. C2C12 myoblasts are grown in 96-well plates in growth medium (DMEM, 20% foetal calf serum) until they reach confluency. The growth medium is then replaced by fusion medium (DMEM, 5% horse serum). 24 hours later the fusion medium is replaced by fusion medium containing the test substances dissolved in 1 μl DMSO. After 2 hours of incubation at 37° C. the cells are loaded with the calpain fluorogenic substrate Suc-Leu-Tyr-AMC at 400 μM in 50 μl of a reaction buffer containing 135 mM NaCl; 5 mM KCl; 4 mM CaCl2; 1 mM MgCl2; 10 mM Glucose; 10 mM HEPES pH 7.25 for 20 min at room temperature. The calcium influx, necessary to activate the cellular calpains, is evoked by the addition of 50 μl reaction buffer containing 20 μM of the calcium ionophore Br-A-23187 (Molecular Probes). The fluorescence of the cleavage product AMC is measured as described above during 60 min at 37° C. at intervals of 1 min. The IC50 values are determined as described above. Comparison of the IC50 determined in the enzymatic calpain inhibition assay to the IC50 determined in the C2C12 myoblasts calpain inhibition assay, allows to evaluate the cellular uptake or the membrane permeability of the substance.

Data set [2] concerns the target T1, human μ-calpain (Homo sapiens, UniProt P07384).
T1 construct: purchased Calbiochem
T1 sequence (P07384 1-714): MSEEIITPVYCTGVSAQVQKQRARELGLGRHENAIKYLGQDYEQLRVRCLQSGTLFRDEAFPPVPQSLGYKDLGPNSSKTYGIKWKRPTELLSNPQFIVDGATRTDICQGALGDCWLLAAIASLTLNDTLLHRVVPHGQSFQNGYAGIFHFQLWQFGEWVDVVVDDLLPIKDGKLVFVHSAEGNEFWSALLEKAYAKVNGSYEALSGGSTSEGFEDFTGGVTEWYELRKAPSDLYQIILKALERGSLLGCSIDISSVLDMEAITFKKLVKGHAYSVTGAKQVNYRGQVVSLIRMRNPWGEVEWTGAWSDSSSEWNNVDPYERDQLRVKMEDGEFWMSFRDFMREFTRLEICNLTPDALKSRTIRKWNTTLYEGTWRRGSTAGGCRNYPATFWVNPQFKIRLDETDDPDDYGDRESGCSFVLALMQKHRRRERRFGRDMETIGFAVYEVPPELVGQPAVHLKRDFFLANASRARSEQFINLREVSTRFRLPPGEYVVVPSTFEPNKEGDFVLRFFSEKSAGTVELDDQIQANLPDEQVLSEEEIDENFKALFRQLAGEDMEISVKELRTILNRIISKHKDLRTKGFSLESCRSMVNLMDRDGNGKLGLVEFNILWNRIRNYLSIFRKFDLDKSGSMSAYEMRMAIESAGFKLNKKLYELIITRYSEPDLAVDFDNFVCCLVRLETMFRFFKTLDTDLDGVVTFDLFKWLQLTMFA
T1 sequence (P04632 1-268 partner): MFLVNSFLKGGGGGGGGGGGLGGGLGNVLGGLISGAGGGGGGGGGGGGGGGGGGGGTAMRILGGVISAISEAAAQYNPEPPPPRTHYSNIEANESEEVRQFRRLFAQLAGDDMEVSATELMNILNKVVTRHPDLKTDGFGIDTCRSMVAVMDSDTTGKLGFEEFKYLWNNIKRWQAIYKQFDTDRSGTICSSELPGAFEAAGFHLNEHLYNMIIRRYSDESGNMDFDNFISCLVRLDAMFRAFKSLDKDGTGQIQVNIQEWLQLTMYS
Nature of the data set: Enzymatic Calpain Inhibition Assay. The format is biochemical. Particulars: enzymatic calpain I inhibition; read-out: Calp I IC50. How it is done: The Ki value was also determined in some cases. These criteria were used to measure the inhibitory effect of the compounds (I) on calpain I, calpain II and cathepsin B.
The inhibitory properties of calpain inhibitors are tested in 100 μl of a buffer containing 100 mM imidazole pH 7.5, 5 mM L-Cystein-HCl, 5 mM CaCl2, 250 μM of the calpain fluorogenic substrate Suc-Leu-Tyr-AMC (Sigma) (Sasaki et al., J. Biol. Chem., 1984, 259, 12489-12949) dissolved in 2.5 μl DMSO and 0.5 μg of human μ-calpain (Calbiochem). The inhibitors dissolved in 1 μl DMSO are added to the reaction buffer. The fluorescence of the cleavage product 7-amino-4-methylcoumarin (AMC) is followed in a SPECTRAmax GEMINI XS (Molecular Device) fluorimeter at λex=360 nm and λem=440 nm at 30° C. during 30 min at intervals of 30 sec in 96-well plates (Greiner). The initial reaction velocity at different inhibitor concentrations is plotted against the inhibitor concentration and the IC50 values determined graphically.

Data set [3] addresses T2, 20S Proteasome (Oryctolagus cuniculus, UniProt G1T4Q9).
T2 sequence (G1T4Q9 1-263): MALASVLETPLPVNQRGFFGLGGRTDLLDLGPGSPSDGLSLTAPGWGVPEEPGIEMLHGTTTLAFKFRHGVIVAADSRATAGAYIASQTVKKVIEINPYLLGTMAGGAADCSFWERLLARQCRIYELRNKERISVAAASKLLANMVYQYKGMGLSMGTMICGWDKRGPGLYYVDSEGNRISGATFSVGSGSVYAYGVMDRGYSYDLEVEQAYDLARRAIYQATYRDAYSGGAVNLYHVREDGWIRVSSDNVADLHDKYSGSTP
The experiment in a line: 20S Proteasome Assay. The format is biochemical. Particulars: Rabbit, read-out: 20S Prot IC50. How it is done:
25 μl of a reaction buffer containing 400 μM of the fluorogenic substrate Suc-Leu-Leu-Val-Tyr-AMC (Bachem) are dispensed per well of a white microtiter plate. Test compounds dissolved in 0.5 μl DMSO are added. To start the reaction; 25 μl of reaction buffer containing 35 ng of enzyme (20S Proteasome, Rabbit, Calbiochem) are added. The increase in fluorescence (excitation at 360 nm; emission at 440 nm) is measured over 30 min at 30° C. at 30″. The IC50's are then determined from the slopes.

In data set [4] the test system is utrophin protein levels in human DMD myotubes. Nature of the data set: Utrophin Expression Assay in Human Myotubes. The format is cell-based. Particulars: 50 nM test compound. How it is done:
Utrophin induction was determined by a method which was similar to a method of 1. Courdier-Fruh et al., Neuromuscular Disord., 2002, 12, S95-S104. Primary human muscle cell cultures were prepared from muscle biopsies taken during orthopedic surgery from Duchenne patients (provided by the Association Francaise contre les Myopathies). Cultures were prepared and maintained according to standard protocols. Induction of utrophin expression in human DMD myotubes was assayed at 50 nM or 500 nM of test compound added in differentiation medium. Normalized utrophin protein levels are determined after 56 d of incubation by cell-based ELISA with a mouse monoclonal antibody to the aminoterminal portion of utrophin (NCL-DRP2, Novocastra Laboratories). For calibration, the cell density and differentiation was determined by absorbance measurements of the total dehydrogenase enzyme activity in each well using the calorimetric CellTiter 96®AQ One Solution Reagent Proliferation Assay (Promega) according to the manufacturer's recommendation. Subsequently, cells were fixed, washed, permeabilized with 0.5% (v/v) Triton X-100 and unspecific antibody binding-sites blocked by standard procedures. Utrophin protein levels were determined immunologically with utrophin-specific primary antibody and with an appropriate peroxidase-coupled secondary antibody (Jackson ImmunoResearch Laboratories) using QuantaBlu™ Fluorogenic Peroxidase Substrate Kit (Pierce) for detection. Fluorescence measurements were carried out with a multilabel counter (Wallac) at λex=355 nm and at λem=460 nm. The primary readout of this signal is presented in arbitrary units. For calibration, the arbitrary units representing the relative utrophin protein content of each well was divided by the corresponding cell-titer absorbance value to correct for cell density. For comparison between experiments, the cell-titer corrected readout for utrophin protein content in each well was expressed in percent of solvent treated control cultures (set to 100%), i.e. data are % utrophin protein levels compared to DMSO solvent (N=4).

The test system of data set [5] is experimental muscular dystrophy in hamster. Particulars: Journal of Pharmacobiodynamics, 1987, 10, 678; cited from earlier work.

As to `CCNC(=O)C(=O)[C@H](Cc1ccc(Cl)cc1)NC(=O)[C@@H](NC(=O)[C@H](Cc1ccccc1)NC(=O)CCCCC1CCSS1)C(C)C` (stereo partly shown) [Example 1], the IC50 in data set [1] came to 200 nM; in data set [2], 45 nM.

In turn, `CCNC(=O)C(=O)C(Cc1ccc(OC)cc1)NC(=O)C(NC(=O)C(Cc1csc2ccccc12)NC(=O)CCCCC1CCS[S+]1[O-])C(C)C` (stereo not shown) [Example 606] displayed a melting point of 190 to 192 °C. Also, the IC50 in data set [1] came to 28 nM. Also, in data set [3], the IC50 amounted to 10 nM. For the same compound, the IC50 in data set [2] was determined as 16 nM. The “UTR Induction @50 nM” value in data set [4] is listed as 151%.

Regarding `CCNC(=O)C(=O)C(Cc1ccccc1)NC(=O)C(NC(=O)C(Cc1cccc2ccccc12)NC(=O)CCCCC1CCSS1)C(C)C` (stereo not shown) [Example 735], the melting point was 220 °C. Moreover, in data set [1], the IC50 was 20 nM. Moreover, the IC50 in data set [3] came out at 27 nM. Also, the IC50 in data set [2] amounted to 35 nM. Moreover, the “UTR Induction @50 nM” value in data set [4] is 134%.

Consider `CCOC(=O)[C@H]1O[C@@H]1C(=O)N[C@@H](CC(C)C)C(=O)NCCC(C)C` [Example E-64-d], for which, in data set [5], the “life-prolonging effect in experimental muscular dystrophy” value is “life-prolonging effect”.
